Source: ChEMBL document CHEMBL6074662, “Antibacterial, Antibiofilm, and Anti-inflammatory Effects of a Novel Thrombin-Derived Peptide in Sepsis Models: Insights into Underlying Mechanisms” (J Med Chem, 2024)
Active and inactive are the calls of the source. The calls are words filed in the database; no cut-off is given here.

Experiments:
Staphylococcus aureus [1] = test: Synergistic antibacterial activity against methicillin-resistant Staphylococcus aureus CCARM 3089 assessed as fractional inhibitory concentration index by measuring ratio of MIC of compound in presence of Chloramphenicol to MIC to compound incubated for 24 hrs by broth microdilution method; format: functional
Pseudomonas aeruginosa [2] = test: Inhibition of biofilm formation in multi-drug resistant Pseudomonas aeruginosa CCARM 2095 at 1 to 128 uM by crystal violet staining based analysis; format: functional, organism-based; conditions: dose 1-128 µM
Staphylococcus aureus [3] = test: Antibacterial activity against methicillin-resistant Staphylococcus aureus CCARM 3089 incubated for 24 hrs by CLSI based broth microdilution method; format: functional
Staphylococcus aureus [4] = test: Antibacterial activity against methicillin-resistant Staphylococcus aureus CCARM 3090 incubated for 24 hrs by CLSI based broth microdilution method; format: functional
Staphylococcus aureus [5] = test: Synergistic antibacterial activity against methicillin-resistant Staphylococcus aureus CCARM 3089 assessed as fractional inhibitory concentration index by measuring ratio of MIC of Chloramphenicol in presence of compound to MIC to Chloramphenicol incubated for 24 hrs by broth microdilution method; format: functional
Pseudomonas aeruginosa [6] = test: Anti-biofilm activity against multi-drug resistant Pseudomonas aeruginosa CCARM 2095 assessed as increase in red-stained dead cells at 32 uM incubated for 12 hrs by SYTO9/PI staining based analysis; format: functional, organism-based
RAW264.7 [7] = test: Anti-inflammatory activity in mouse RAW264.7 cells assessed as decrease in LPS-induced IL-6 level at 2.5 uM pretreated for 1 hr followed by LPS treatment for 16 hrs by ELISA relative to control; format: functional; conditions: time 17 hrs
Pseudomonas aeruginosa [8] = test: Synergistic antibacterial activity against multi-drug resistant Pseudomonas aeruginosa CCARM 2095 assessed as fractional inhibitory concentration index by measuring ratio of MIC of compound in presence of Chloramphenicol to MIC to compound incubated for 24 hrs by broth microdilution method; format: functional
RAW264.7 [9] = test: Anti-inflammatory activity in mouse RAW264.7 cells assessed as decrease in LPS-induced IL-6 level at 5 uM pretreated for 1 hr followed by LPS treatment for 16 hrs by ELISA relative to control; format: functional; conditions: time 17 hrs
Escherichia coli [10] = test: Induction of inner membrane permeabilization in Escherichia coli KCTC 1682 at MIC by PI staining based flow cytometry (reference value: 1.51 %); format: functional
RAW264.7 [11] = test: Anti-inflammatory activity in mouse RAW264.7 cells assessed as inhibition of LPS-induced NO production at 2.5 uM pretreated for 1 hr followed by LPS treatment for 16 hrs by Griess assay relative to control; format: functional; conditions: time 17 hrs
Escherichia coli [12] = test: Antibacterial activity against Escherichia coli KCTC 1682 incubated for 24 hrs in presence of MgCl2 by CLSI based broth microdilution method; format: functional
Pseudomonas aeruginosa [13] = test: Eradication of biofilm formation in multi-drug resistant Pseudomonas aeruginosa CCARM 2095 at 1 to 128 uM incubated for 12 hrs by CLSM analysis; format: functional, organism-based; conditions: dose 1-128 µM
Acinetobacter baumannii [14] = test: Antibacterial activity against carbapenem-resistant Acinetobacter baumannii CCARM 12005 incubated for 24 hrs by CLSI based broth microdilution method; format: functional
Staphylococcus aureus [15] = test: Synergistic antibacterial activity against methicillin-resistant Staphylococcus aureus CCARM 3089 assessed as fractional inhibitory concentration index by measuring ratio of MIC of compound in presence of Oxacillin to MIC to compound incubated for 24 hrs by broth microdilution method; format: functional
Pseudomonas aeruginosa [16] = test: Antibacterial activity against multidrug-resistant Pseudomonas aeruginosa CCARM 2095 incubated for 24 hrs by CLSI based broth microdilution method; format: functional
Staphylococcus aureus [17] = test: Antibacterial activity against methicillin-resistant Staphylococcus aureus CCARM 3089 incubated for 24 hrs by broth microdilution method; format: functional
Escherichia coli [18] = test: Induction of cytoplasmic membrane depolarization in Escherichia coli KCTC 1682 at 0.5 times MIC measured for 500 secs by diSC3-5 dye based analysis relative to control; format: functional; conditions: time 500 sec; 0.1389 h
Pseudomonas aeruginosa [19] = test: Eradication of biofilm formation in multi-drug resistant Pseudomonas aeruginosa CCARM 2095 at 32 uM incubated for 12 hrs by CLSM analysis relative to control; format: functional
Pseudomonas aeruginosa [20] = test: Inhibition of biofilm formation in multi-drug resistant Pseudomonas aeruginosa CCARM 2095 at 4 to 8 uM by crystal violet staining based analysis relative to control; format: functional; conditions: dose 4-8 µM
[21] = Cytotoxicity against mouse RAW264.7 cells assessed as cell viability at 30 uM incubated for 16 hrs by WST-8 assay relative to control; format: toxicity, cell-based; conditions: read-out: Activity
Pseudomonas aeruginosa [22] = test: Synergistic antibacterial activity against multi-drug resistant Pseudomonas aeruginosa CCARM 2095 incubated for 24 hrs in presence of Ciprofloxacin by broth microdilution method; format: functional
Escherichia coli [23] = test: Induction of morphological change in Escherichia coli KCTC 1682 assessed as distorted irregular cells at MIC incubated for 4 hrs by SEM analysis; format: functional, organism-based
Pseudomonas aeruginosa [24] = test: Synergistic antibacterial activity against multi-drug resistant Pseudomonas aeruginosa CCARM 2095 assessed as fractional inhibitory concentration index by measuring ratio of MIC of compound in presence of Oxacillin to MIC to compound incubated for 24 hrs by broth microdilution method; format: functional
Staphylococcus aureus [25] = test: Synergistic antibacterial activity against methicillin-resistant Staphylococcus aureus CCARM 3089 assessed as fractional inhibitory concentration index by measuring ratio of MIC of Ciprofloxacin in presence of compound to MIC to Ciprofloxacin incubated for 24 hrs by broth microdilution method; format: functional
Pseudomonas aeruginosa [26] = test: Synergistic antibacterial activity against multi-drug resistant Pseudomonas aeruginosa CCARM 2095 assessed as fractional inhibitory concentration index by measuring ratio of MIC of Oxacillin in presence of compound to MIC to Oxacillin incubated for 24 hrs by broth microdilution method; format: functional
Escherichia coli [27] = test: Antibacterial activity against Escherichia coli KCTC 1682 incubated for 24 hrs in presence of FeCl3 by CLSI based broth microdilution method; format: functional
[28] = Hemolytic activity in sheep RBC at 256 uM incubated for 1 hr by absorbance based assay; format: toxicity, cell-based, Ovis aries, Erythrocyte; conditions: sheep red blood cells, read-out: Activity
Escherichia coli [29] = test: Induction of inner membrane permeabilization in Escherichia coli KCTC 1682 at 0.5 times MIC by PI staining based flow cytometry (reference value: 1.51 %); format: functional
Staphylococcus aureus [30] = test: Synergistic antibacterial activity against methicillin-resistant Staphylococcus aureus CCARM 3089 incubated for 24 hrs in presence of Chloramphenicol by broth microdilution method; format: functional
Staphylococcus aureus [31] = test: Synergistic antibacterial activity against methicillin-resistant Staphylococcus aureus CCARM 3089 assessed as MIC of Chloramphenicol incubated for 24 hrs by broth microdilution method; format: functional
Acinetobacter baumannii [32] = test: Antibacterial activity against multidrug-resistant Acinetobacter baumannii 329-97 incubated for 24 hrs by CLSI based broth microdilution method; format: functional
Pseudomonas aeruginosa [33] = test: Synergistic antibacterial activity against multi-drug resistant Pseudomonas aeruginosa CCARM 2095 assessed as fractional inhibitory concentration index incubated for 24 hrs in presence of Chloramphenicol by broth microdilution method; format: functional
Salmonella typhimurium = test: Antibacterial activity against Salmonella typhimurium KCTC 1926 incubated for 24 hrs by CLSI based broth microdilution method; format: functional, Salmonella enterica subsp. enterica serovar Typhimurium; conditions: Salmonella enterica
RAW264.7 [34] = test: Anti-inflammatory activity in mouse RAW264.7 cells assessed as decrease in LPS-induced TNF-alpha level at 2.5 uM pretreated for 1 hr followed by LPS treatment for 16 hrs by ELISA relative to control; format: functional; conditions: time 17 hrs

Substance	FIC (Staphylococcus aureus [1])	Activity (Pseudomonas aeruginosa [2])	MIC (Staphylococcus aureus [3])	MIC (Staphylococcus aureus [4])	FIC (Staphylococcus aureus [5])	Activity (Pseudomonas aeruginosa [6])	inhibition at 2.5 µM (RAW264.7 [7])	FIC (Pseudomonas aeruginosa [8])	inhibition at 5 µM (RAW264.7 [9])	Activity (Escherichia coli [10])	inhibition at 2.5 µM (RAW264.7 [11])	MIC (Escherichia coli [12])	Activity (Pseudomonas aeruginosa [13])	MIC (Acinetobacter baumannii [14])	FIC (Staphylococcus aureus [15])	MIC (Pseudomonas aeruginosa [16])	MIC (Staphylococcus aureus [17])	Activity (Escherichia coli [18])	Activity (Pseudomonas aeruginosa [19])	inhibition (INH) (Pseudomonas aeruginosa [20])	also measured
H-GVFRLKKWIKKVIKKWGK-NH2	0.25	Active; Superior Activity Compared To Ll-37	8 µM	8 µM	0.25	Active	28.6%	0.25	44.4%	~100%	80.7%	32 µM	Active; Superior Activity Compared To Ll-37	4 µM	0.063	8 µM	8 µM	~50%	>50%	>50%	viability at 16 h, 30 µM [21]: > 80%; MIC (Pseudomonas aeruginosa [22]): 4 µM; Activity (Escherichia coli [23]): Active; FIC (Pseudomonas aeruginosa [24]): 0.25; FIC (Staphylococcus aureus [25]): 0.5; FIC (Pseudomonas aeruginosa [26]): 0.031; MIC (Escherichia coli [27]): 32 µM; hemolysis at 1 h, 256 µM [28]: 8.9%; Activity (Escherichia coli [29]): ~100%; MIC (Staphylococcus aureus [30]): 2 µM; MIC (Staphylococcus aureus [31]): 256 µM; MIC (Acinetobacter baumannii [32]): 2 µM; fractional inhibitory concentration index (FICI) (Pseudomonas aeruginosa [33]): 0.375; MIC (Salmonella typhimurium): 4 µM; inhibition at 2.5 µM (RAW264.7 [34]): 2.6%
H-GVFRLKKWLKKVKKWGK-NH2	0.063	Active; Superior Activity Compared To Ll-37	8 µM	8 µM	0.5	Active	98.5%	0.25	99%	~100%	80.3%	32 µM	Active; Superior Activity Compared To Ll-37	4 µM	0.063	8 µM	8 µM	~50%	>50%	>50%	viability at 16 h, 30 µM [21]: > 80%; MIC (Pseudomonas aeruginosa [22]): 4 µM; Activity (Escherichia coli [23]): Active; FIC (Pseudomonas aeruginosa [24]): 0.25; FIC (Staphylococcus aureus [25]): 0.5; FIC (Pseudomonas aeruginosa [26]): 0.031; MIC (Escherichia coli [27]): 32 µM; hemolysis at 1 h, 256 µM [28]: 9.1%; Activity (Escherichia coli [29]): ~100%; MIC (Staphylococcus aureus [30]): 0.5 µM; MIC (Staphylococcus aureus [31]): 512 µM; MIC (Acinetobacter baumannii [32]): 4 µM; fractional inhibitory concentration index (FICI) (Pseudomonas aeruginosa [33]): 0.375; MIC (Salmonella typhimurium): 8 µM; inhibition at 2.5 µM (RAW264.7 [34]): 32.3%
